Experimental data: BindingDB's records for patent US20250122166 (ST. JUDE CHILDREN''S RESEARCH HOSPITAL, INC., 2025)
pIC50: −log10 of the molar value.

Target: Protein cereblon (Homo sapiens, UniProt Q96SW2)
Experiment: Crbn Fluorescence Polarization Assay
Protocol: In this competitive fluorescent polarization assay Cy5 conjugated lenalidomide analog (Cy5—O-Len)1 was used as a fluorescent probe. 6XHis-CRBN-DDB1 protein (200 nM) and Cy5—O-Len probe (30 nM) were combined in 20 mM HEPES pH 7, 150 mM NaCl, 0.005% Tween-20 assay buffer. 20 μL of this assay cocktail was dispensed into wells of Corning 3821 black 384-well plates. Compounds were transferred to the assay plate from a dose-response plate using a Pintool on a Biomek FXP Laboratory Automation Workstation (Beckman Coulter). The plates were incubated in the dark for 1 hour at room temperature and then read on an Envision plate reader (PerkinElmer, Massachusetts, USA). IC50 values were determined using a proprietary software RISE (Robust Investigation of Screening Experiments), developed in house on the Pipeline Pilot platform (Biovia, v. 17.2.0). Data represent the mean of three independent determinations.

Row | pIC50 | SMILES
1 | > 6.00 | O=C1CCC(N2Cc3c(CNC(=O)c4ccc(Cl)cc4Cl)cccc3C2=O)C(=O)N1 (stereo not drawn) [US20250122166, Compound 28]
2 | > 6.00 | O=C1CCC(N2Cc3c(CNC(=O)c4ccc(Cl)c(C(F)(F)F)c4)cccc3C2=O)C(=O)N1 (stereo not drawn) [US20250122166, Compound 21]
3 | > 6.00 | O=C1CCC(N2Cc3c(CNC(=O)c4ccc(Br)cc4)cccc3C2=O)C(=O)N1 (stereo not drawn) [US20250122166, Compound 18]
